Measured values as given in US10227344B2, “CK2 inhibitors, compositions and methods thereof” (Polaris Pharmaceuticals, Inc., priority 2016, dated 2019).

Key:
Colo205 = experiment: Cancer cell panel, cell viability (resazurin): Colon, Colo205; type: cell-based; conditions: Homo sapiens, COLO 205, 72 hours, single agent, read-out: Example 3 IC50
Raji = experiment: Cancer cell panel, cell viability (resazurin): Burkitt's Lymphoma, Raji; type: cell-based; conditions: Homo sapiens, 72 hours, single agent, read-out: Example 3 IC50
Protocol: (§1) Cells were plated in 96-well plates and treated for 72 hours with a serially diluted CK2 inhibitor or anti-cancer drug or their combination. The suspension cell lines were treated right after plating, while the adherent cells were allowed to attach overnight prior to the start of the treatment.
(§2) Cell viability was determined by adding resazurin to cell cultures and measuring fluorescence with a plate reader. Relative cell viability was calculated by dividing the cell viability signal from a test sample by that of a non-treated control. […] Bliss Independence and Highest Single Agent models were used to determine if there is synergy, additivity or antagonism between the CK2 inhibitor and an anti-cancer drug.

HL60 = experiment: Cancer cell panel, cell viability (resazurin): Leukemia, HL60; type: cell-based; conditions: Homo sapiens, HL-60, 72 hours, single agent, read-out: Example 3 IC50
HCT116 = experiment: Cancer cell panel, cell viability (resazurin): Colon, HCT116; type: cell-based; conditions: Homo sapiens, HCT-116, 72 hours, single agent, read-out: Example 3 IC50
Protocol: as §1, §2

H1299 = experiment: Cancer cell panel, cell viability (resazurin): NSCLC, H1299; type: cell-based; conditions: Homo sapiens, NCI-H1299, 72 hours, single agent, read-out: Example 3 IC50
Protocol: as §1, §2

Caki-2 = experiment: Cancer cell panel, cell viability (resazurin): Renal, Caki-2; type: cell-based; conditions: Homo sapiens; Caki-2 (Renal), 72 hours, single agent; read-out: Example 3 IC50
Caov-3 = experiment: Cancer cell panel, cell viability (resazurin): Ovarian, Caov-3; type: cell-based; conditions: Homo sapiens; Caov-3 (Ovarian), 72 hours, single agent; read-out: Example 3 IC50
Panc-1 = experiment: Cancer cell panel, cell viability (resazurin): Pancreatic, Panc-1; type: cell-based; conditions: Homo sapiens; Panc-1 (Pancreatic), 72 hours, single agent; read-out: Example 3 IC50
Protocol: as §1, §2

HT29 = experiment: Cancer cell panel, cell viability (resazurin): Colon, HT29; type: cell-based; conditions: Homo sapiens, HT-29, 72 hours, single agent, read-out: Example 3 IC50
PC3 = experiment: Cancer cell panel, cell viability (resazurin): Prostate, PC3; type: cell-based; conditions: Homo sapiens, PC-3, 72 hours, single agent, read-out: Example 3 IC50
Protocol: as §1, §2

MDA-MB-231 = experiment: Cancer cell panel, cell viability (resazurin): Breast, MDA-MB-231; type: cell-based; conditions: Homo sapiens; MDA-MB-231 (Breast), 72 hours, single agent; read-out: Example 3 IC50
Protocol: as §1, §2

A2780 = experiment: Cancer cell panel, cell viability (resazurin): Ovarian, A2780; type: cell-based; conditions: Homo sapiens, 72 hours, single agent, read-out: Example 3 IC50
EOL-1 = experiment: Cancer cell panel, cell viability (resazurin): Leukemia, EOL-1; type: cell-based; conditions: Homo sapiens, EOL1; EOL-1 (Leukemia), 72 hours, single agent; read-out: Example 3 IC50
H460 = experiment: Cancer cell panel, cell viability (resazurin): NSCLC, H460; type: cell-based; conditions: Homo sapiens, NCI-H460, 72 hours, single agent, read-out: Example 3 IC50
786-O = experiment: Cancer cell panel, cell viability (resazurin): Renal, 786-O; type: cell-based; conditions: Homo sapiens, 786-0; 786-O (Renal), 72 hours, single agent; read-out: Example 3 IC50
Daudi = experiment: Cancer cell panel, cell viability (resazurin): Burkitt's Lymphoma, Daudi; type: cell-based; conditions: Homo sapiens, 72 hours, single agent, read-out: Example 3 IC50
Protocol: as §1, §2

purified CK2α enzyme = purified CK2α enzyme (Homo sapiens, UniProt P68400); experiment: CK2 Protein Kinase Inhibition Assay (coupled PK/LDH assay); type: biochemical; conditions: CK2 enzyme 25 nM, 100 μM ATP, 37° C., Morrison equation
Summary of the method: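 Purified CK2α at 25 nM final, 1.5 mM peptide substrate, 100 μM ATP, pH 8.25 Tris buffer; compounds pre-incubated 10 min at 37° C. ADP coupled via PK/LDH to NADH loss at 340 nm over 30 min, 37° C. Ki from rate versus concentration by Morrison equation, triplicate points.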

T47D = experiment: Cancer cell panel, cell viability (resazurin): Breast, T47D; type: cell-based; conditions: Homo sapiens, 72 hours, single agent, read-out: Example 3 IC50
K562 = experiment: Cancer cell panel, cell viability (resazurin): Leukemia, K562; type: cell-based; conditions: Homo sapiens, 72 hours, single agent, read-out: Example 3 IC50

purified CK2α enzyme, sequence (P68400 whole entry): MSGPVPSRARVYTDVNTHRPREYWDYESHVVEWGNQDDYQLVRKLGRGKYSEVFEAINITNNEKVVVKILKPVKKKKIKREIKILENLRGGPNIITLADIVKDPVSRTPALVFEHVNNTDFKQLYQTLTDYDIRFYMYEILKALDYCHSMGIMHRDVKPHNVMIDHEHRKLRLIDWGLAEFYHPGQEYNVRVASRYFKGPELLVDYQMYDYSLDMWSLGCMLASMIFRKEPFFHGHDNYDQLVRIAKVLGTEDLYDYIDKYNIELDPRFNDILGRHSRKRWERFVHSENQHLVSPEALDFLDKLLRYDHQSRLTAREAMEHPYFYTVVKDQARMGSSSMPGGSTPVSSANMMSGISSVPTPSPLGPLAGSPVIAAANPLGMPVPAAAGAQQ

Work on `C[S@+]([O-])Cc1cc(Nc2cc(NC3CC3)n3ncc(C#N)c3n2)ccc1Cl` [Example 3, (S)(+)-5-((4-Chloro-3-((methylsulfinyl)methyl)phenyl)amino)-7-(cyclopropylamino)pyrazolo[1,5-a]pyrimidine-3-carbonitrile] yielded an IC50 (Colo205) of 1120 nM, an IC50 (Raji) of 249 nM and an IC50 (HL60) of 261 nM. The IC50 (HCT116) was 356 nM, the IC50 (H1299) was 246 nM and the IC50 (Caki-2) was 669 nM. For the same molecule, the IC50 (Caov-3) was 50 nM, the IC50 (Panc-1) was 539 nM and the IC50 (HT29) was 197 nM. The IC50 (PC3) was 112 nM, the IC50 (MDA-MB-231) was 567 nM and the IC50 (A2780) was 527 nM. For the same molecule, the IC50 (EOL-1) was 138 nM, the IC50 (H460) was 350 nM and the IC50 (786-O) was 2620 nM. It also gave an IC50 (Daudi) of 217 nM, a Ki (purified CK2α enzyme) of under 2.5 nM and an IC50 (T47D) of 861 nM. It also gave an IC50 (K562) of 463 nM.
